Test [1] has as its system high-fat diet mouse model of type 2 diabetes. Briefly: insulin resistance test. The class given is in vivo. The settings on record: HFD+L-Tyr vs HFD; 6 hours fasting, insulin 0.75 U/kg i.p., 15-90 minutes. The method, then: (§1) Twenty-seven C57BL/6 male mice (3-week old) were acclimated to the breeding condition for 1 week. […] Blood glucose was measured every week.
Insulin was diluted with physiological saline to prepare 0.15 U/ml solution. Blood glucose of a mouse, which has been subjected to fasting for 6 hours, was measured, and the animal was intraperitoneally injected with insulin (0.75 U/bodyweight (kg)). After the intraperitoneal injection of insulin, blood glucose was measured at time points of 15, 30, 60, and 90 minutes. Insulin injection amount(μl)=Bodyweight(g)×5 Formula (2)

Test [2] has the same test system. Briefly: high-fat diet mouse model of type 2 diabetes: bodyweight, food intake amount, blood glucose. The settings on record: HFD+L-Tyr (181 mg of L-tyrosine/kg) compared to HFD, measured every week. The class given is in vivo. The method, then:
as §1

In test [3] the test system is glutamine synthetase (GS). Description: activity of glutamine synthetase (GS) in hippocampus lysate after kainic acid. As to conditions: mouse survived after kainic acid, tyrosine diet vs ND/control. Type of test: in vivo. On the procedure:
To a 96-well plate, 2 μl of hippocampus lysate were added, and then adjusted to 50 μl by additionally adding 50 mM imidazole-HCl buffer solution (pH 6.8). After adding 50 μl of GS activity assay buffer solution (50 mM imidazole-HCl, pH 6.8, 25 mM L-glutamine, 12.5 mM hydroxylamine, 12.5 mM sodium arsenate, 1 mM MnCl2 and 0.08 mM ADP), the reaction was allowed to occur at 37° C. for 30 to 60 minutes.
Upon the completion of the reaction, γ-glutamylhydroxamate as a reference material was added to an empty well such that it is present at a concentration of between 0.391 and 25.0 mM. To the sample and reference material, 100 μl of reaction termination solution (90 mM FeCl3, 1.8 N HCl and 1.45% (w/v) trichloroacetic acid) were added and absorbance at a wavelength of 560 nm was measured.
Based on comparison with standard curve, GS activity was obtained for each sample. GS activity was expressed in terms of the production amount of γ-glutamylhydroxamate as a final product with unit of μM/min/μg of protein.

Test [4] deals with high-fat diet mouse model of type 2 diabetes. Briefly: fat accumulation in tissues, high-fat diet model. Type of test: in vivo. The method, then: as §1
Mouse was anesthetized with avertin, and blood was collected from a heart. After the reaction with EDTA in a vacucontainer, the blood was centrifuged for 15 minutes at 1,500×g, 4° C. to separate plasma. According to heart perfusion with PBS and 4% paraformaldehyde (PFA), tissue fixation was carried out. Then, each tissue was harvested and stored in PFA.

In test [5] the test system is mouse model of epileptic seizure which has been induced to have seizure by kainic acid. Briefly: ROS/RNS in hippocampal tissues after kainic acid. As to conditions: mouse survived after kainic acid, tyrosine diet vs ND. Type of test: in vivo. The method, then:
Hippocampus in brain tissues was added with RIPA (containing proteinase/phosphatase inhibitor), in an amount of 100 μl per 10 mg of the tissues, and then lysed for 1 minute by using glass beads and a bullet blender. Supernatant was separated by centrifuge for 15 minutes at 12,000×g, 4° C., and, after 10-fold dilution with PBS, used for measurement of ROS/RNS. Concentration of ROS/RNS was measured by using Oxiselect ROS/RNS assay kit (Cell Biolabs) according to the recommended experimental protocol.

Test [6] relates to glutamine synthetase (GS). Description: activity of glutamine synthetase (GS) in lysate of cerebral motor cortex, endothelin-1 stroke model. Type of test: in vivo, mouse. The settings on record: Tyr diet (905 mg/kg L-Tyr). On the procedure:
(§2) The mouse was anesthetized by intraperitoneal injection of avertin as an anesthetic (0.5 ml/25 g of mouse bodyweight). Thereafter, endothelin-1 was injected (2 μg) to the cerebral motor cortex area (with bregma at the center, AP 1.5 mm, ML-1.5 mm, and DV 1.8 mm) by stereotaxic surgery. The injection was made at speed of 0.3 μl per minute. The needle was left for about 5 minutes after completing the injection so that endothelin-1 can be fully absorbed in animal tissues. After suturing the skin, the animal was allowed to recover in the original cage.
To a 96-well plate, 2 μl of lysate of cerebral motor cortex were added, and then adjusted to 50 μl by additionally adding 50 mM imidazole-HCl buffer solution (pH 6.8). After adding 50 μl of GS activity assay buffer solution (50 mM imidazole-HCl, pH 6.8, 25 mM L-glutamine, 12.5 mM hydroxylamine, 12.5 mM sodium arsenate, 1 mM MnCl2 and 0.08 mM ADP), the reaction was allowed to occur at 37° C. for 30 to 60 minutes.
Upon the completion of the reaction, γ-glutamylhydroxamate as a reference material was added to an empty well (0.391 to 25.0 mM). To the sample and reference material, 100 μl of reaction termination solution (90 mM FeCl3, 1.8 N HCl and 1.45% trichloroacetic acid) were added and absorbance at a wavelength of 560 nm was measured. Based on comparison with standard curve, GS activity was obtained for each sample. […]

Test [7] deals with chronic immobilization stress group (STR). Briefly: TST (tail suspension test) after chronic immobilization stress. Type of test: in vivo, mouse. As to conditions: tyrosine-diet (181.2 mg/kg) vs normal diet, p<0.05. The method, then: The animal models were divided into two groups (i.e., normal group and stress group). The animal of stress group was individually brought by force to a restrainer for 2 hours every day (i.e., between 2 PM and 4 PM) so that it was applied with chronic immobilization stress for 15 days. Change in bodyweight and food intake amount were measured every other day. The normal group and stress group were divided again into a normal diet group and a tyrosine-supplemented diet group (181.2 mg/kg), and then fed. For TST (tail suspension test), the mouse was individually hung in a box with horizontal bar. To measure the immobile duration, animal movement was followed for 6 minutes.

Test [8] relates to mouse model of stroke using endothelin-1. Briefly: brain infarction (cresyl violet staining) in endothelin-1 stroke model. The class given is in vivo. As to conditions: endothelin-1 (2 μg) to cerebral motor cortex, tyrosine 900 mg/kg (feed weight). On the procedure: To de-ionized water, endothelin-1 was added (2 μg/μl), and, after vigorous vortexing, completely dissolved by ultrasonication at 4° C. for about 10 minutes.
as §2
Perfusion with PBS and PFA was carried out, via animal heart and the brain was removed and post-fixed in PFA for 15 hours or longer. After washing 3 times for 10 minutes with PBS, brain tissue specimen with thickness of 40 μm was obtained using a vibratome. Then, four specimens collected from the area injected with endothelin-1 were fixed on a silane-coated glass slide. […] The stained specimen sample was observed under an optical microscope, and, with the stored image, the area showing brain infarction was calculated by using Image J analysis program.

Setting [9] is: HFD animal model, L-tyrosine diet (181 mg/kg).

“Also recorded” adds a separate entry of the source.

Results on two compounds are retold here after patent US12605350B2, “Composition for preventing, ameliorating, or treating disease caused by nitration of tyrosine in proteins comprising tyrosine as effective component” (INDUSTRY-ACADEMIC COOPERATION FOUNDATION GYEONGSANG …, priority 2020, dated 2026).

On to `N[C@@H](Cc1ccc(O)cc1)C(=O)O` [L-tyrosine], for which the “blood glucose amount, insulin resistance test” value in test [1] was “statistically significant decrease in blood glucose amount”. The blood glucose result was “statistically significant decrease in blood glucose amount” in test [2] and “statistically significant decrease” in test [2] (listed as L-Tyr).

For the compound `N[C@@H](Cc1ccc(O)cc1)C(=O)O` [tyrosine], the “GS activity in hippocampal tissues” value in test [3] is “the same or higher than the control group; also recorded: statistically significant increase in GS activity”. Moreover, in test [4] (setting [9]), the “amount of fat tissues around kidney” value is “reduced to a statistically different level” and the “fat accumulation in liver” value is “fat accumulation is reduced all over the liver”. Further, the “tissue weight (fat accumulation in tissues)” value in test [4] (HFD+Tyr compared to HFD) was “statistically significant decrease in tissue weight”. Besides, in test [5], the “ROS/RNS amount in hippocampal tissues” value is “reduced to the level of the control group; also recorded: statistically significant decrease in ROS/RNS amount”. Moreover, the “GS activity of the tissues (cerebral motor cortex)” value in test [6] is given as “the activity can be maintained”. In addition, the immobile duration entry in test [7] was “statistically significant decrease in immobile duration”. In addition, the infarct volume entry in test [8] is reported as “infarct volume is reduced”.
